Assay results from paper PMC10489644, “In Vitro Evaluation of the Potential for Drug Interactions by Salidroside” (Nutrients, 2023).
Several values for one entry are separate records, joined by “and”; a condition that tells them apart may be missing. Equal entries are not always repeated. Entries after “also recorded” stand apart in the source; their conditions may differ.

How the values were obtained:
[1] = biological target: T1, OATP1B1 (Homo sapiens, UniProt Q9Y6L6); experiment: Uptake transport inhibition in HEK293-OATP1B1 cells
T1 sequence (Q9Y6L6 1-691): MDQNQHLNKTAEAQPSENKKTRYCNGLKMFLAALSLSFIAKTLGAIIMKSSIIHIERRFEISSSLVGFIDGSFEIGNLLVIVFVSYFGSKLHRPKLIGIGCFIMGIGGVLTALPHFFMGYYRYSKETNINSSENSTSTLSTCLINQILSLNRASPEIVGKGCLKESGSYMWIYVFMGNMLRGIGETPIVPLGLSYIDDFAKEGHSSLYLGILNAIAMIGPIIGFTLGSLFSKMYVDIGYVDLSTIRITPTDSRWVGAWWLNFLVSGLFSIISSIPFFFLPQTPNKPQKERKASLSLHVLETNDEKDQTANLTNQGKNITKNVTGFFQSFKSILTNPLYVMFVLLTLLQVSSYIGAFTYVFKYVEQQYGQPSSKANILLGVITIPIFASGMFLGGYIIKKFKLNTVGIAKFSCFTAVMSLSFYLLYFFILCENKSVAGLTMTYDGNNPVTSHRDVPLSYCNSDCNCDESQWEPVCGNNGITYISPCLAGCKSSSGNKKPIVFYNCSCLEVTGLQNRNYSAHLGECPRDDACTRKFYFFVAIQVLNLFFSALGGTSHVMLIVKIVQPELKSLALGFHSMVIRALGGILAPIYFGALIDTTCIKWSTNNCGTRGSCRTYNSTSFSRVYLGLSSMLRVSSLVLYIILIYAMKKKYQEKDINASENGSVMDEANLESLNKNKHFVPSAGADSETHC
Description: HEK293-OATP1B1 and OATP1B3 cells were diluted to 1 × 10^6 cells/mL with DMEM supplemented with 1% non-essential amino acid (NEAA), 10% fetal bovine serum (FBS), 1% PS solution (100 U/mL penicillin-G and 100 μg/mL streptomycin), and seeded on a 96-well BioCoat™ poly-d-lysine plate at a density of 1 × 10^6 cells/mL. […] Once the cells were anchored on the plate, the cell culture was replaced with DMEM containing 10% FBS and 1% PS solution (100 U/mL penicillin-G and 100 μg/mL streptomycin solution) and cultured one day for the uptake and inhibition studies. The cell culture medium was removed from the 96-well plate, then rinsed twice with 0.1 mL/well of pre-warmed transport buffer. The transporter cells containing pre-incubation solution were pre-incubated at 37 °C for 30 min. Then the pre-incubation solution was removed and replaced with 0.1 mL/well of dosing solution containing a substrate, respectively (blank transporter buffer containing a substrate, transport buffer containing a substrate and PC, and transport buffer containing a substrate and salidroside). Then, the transporter cells were incubated at 37 °C for 2 min. After incubation, all solutions in the cells were discarded and rinsed with 0.10 mL/well of ice-cold transport buffer (4 °C) three times. […] All samples were shaken and centrifuged at 4000 rpm at 4 °C for 15 min and the supernatant was removed for future analysis by LC-MS/MS.
Enzyme activity (%) = PAR with compound/PAR vehicle × 100.
Estradiol-17β-glucuronide (substrate) was incubated with an OATP1B1-transfected HEK293 cell monolayer in the presence or absence of salidroside at concentrations up to 100 µM.

[2] = biological target: T2, CYP1A2 (Homo sapiens, UniProt P05177); experiment: CYP direct inhibition in human liver microsomes; assay type: in vitro ADME; conditions: probe phenacetin, mean of N = 2
T2 construct: Mixed human liver microsomes were purchased from BioreclamationIVT; tissue BioreclamationIVT; host or cells: mixed-donor pool of human liver microsomes (Lot ZZQ)
T2 sequence (P05177 1-516): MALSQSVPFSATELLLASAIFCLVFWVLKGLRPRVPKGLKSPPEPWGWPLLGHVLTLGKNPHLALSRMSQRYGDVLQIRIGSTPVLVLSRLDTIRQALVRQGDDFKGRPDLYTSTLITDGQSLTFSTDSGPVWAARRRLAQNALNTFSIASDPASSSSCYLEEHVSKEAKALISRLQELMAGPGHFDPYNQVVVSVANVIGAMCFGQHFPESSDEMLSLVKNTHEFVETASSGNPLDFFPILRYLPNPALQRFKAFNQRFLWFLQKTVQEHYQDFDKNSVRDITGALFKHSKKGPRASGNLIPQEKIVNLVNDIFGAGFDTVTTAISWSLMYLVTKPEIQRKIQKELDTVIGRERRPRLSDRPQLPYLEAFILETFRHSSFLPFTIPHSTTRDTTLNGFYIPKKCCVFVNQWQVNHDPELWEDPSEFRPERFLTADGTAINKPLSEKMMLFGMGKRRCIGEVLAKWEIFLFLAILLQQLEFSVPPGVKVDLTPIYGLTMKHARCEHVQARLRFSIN

[3] = Rat pharmacokinetics after IV or oral dosing; assay type: in vivo, Male Sprague–Dawley rats; conditions: fa = fb/((1 − CL/Qh) × 100%)
Description: An estimation of the maximum plasma concentration of salidroside in humans was made from the pharmacokinetics in rats after oral dosing and the recommended human daily dose of salidroside of 60 mg (two 30 mg capsules). Male Sprague–Dawley rats were dosed either with IV or orally at 12 mg/kg (N = 6/group). Salidroside was moderately cleared (21 mL/min/kg) and well absorbed orally.

[4] = tested on: rat CYP enzymes (probe drug cocktail); design: method as in PMID 29796228; conditions: salidroside 30 mg/kg/day, eight daily doses, day 8; cited from earlier work
[5] = design: method as in PMID 22139684, PMID 22525439; conditions: rats, two studies; cited from earlier work
[6] = biological target: T3, CYP2C8 (Homo sapiens, UniProt P10632); experiment: biochemical
T3 sequence (P10632 1-490): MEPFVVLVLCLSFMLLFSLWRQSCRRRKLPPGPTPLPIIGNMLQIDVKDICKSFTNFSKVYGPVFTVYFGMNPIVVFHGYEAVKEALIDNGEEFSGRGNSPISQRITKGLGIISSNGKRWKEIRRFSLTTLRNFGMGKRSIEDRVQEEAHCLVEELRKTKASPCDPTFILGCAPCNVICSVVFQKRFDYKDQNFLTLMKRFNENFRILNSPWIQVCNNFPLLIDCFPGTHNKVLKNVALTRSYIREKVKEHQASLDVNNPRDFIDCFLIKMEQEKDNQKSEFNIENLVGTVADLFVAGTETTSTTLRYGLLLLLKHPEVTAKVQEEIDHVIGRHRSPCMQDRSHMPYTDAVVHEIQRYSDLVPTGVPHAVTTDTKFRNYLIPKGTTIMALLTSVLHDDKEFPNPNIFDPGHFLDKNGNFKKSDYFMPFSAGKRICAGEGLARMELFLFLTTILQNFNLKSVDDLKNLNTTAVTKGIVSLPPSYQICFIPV
Description: Incubation without 30 min pre-incubation, 178.5 µL of liver microsomes working was pre-incubated in a 37 °C water bath for 30 min. After the pre-incubation, 1.5 μL of test compound or control compound working solution, 60 μL of substrate working solution, and 60 μL of NADPH working solution were added; then, the reaction mixture was mixed by pipetting up and down and then incubated at 37 °C for 10 min. Incubation with 30 min pre-incubation. Next, 1.5 μL of test compound or control compound working solutions and 60 μL of NADPH working solution were added into 178.5 μL of liver microsome working solution, then the reaction mixture was mixed by pipetting up and down and then pre-incubated at 37 °C for 30 min. […]
For competitive and time-dependent CYP inhibition, the peak area ratios (PAR) of analyte/internal standard were used to semi-quantitatively determine the concentration of acetaminophen (CYP1A2 activity), 4’-hydroxydiclofenac (CYP2C9), 4’-hydroxymephenytoin (CYP2C19), dextrorphan (CYP2D6), 1’-hydroxymidazolam (CYP3A4), 6β-hydroxytestosterone (CYP3A4), hydroxybupropion (CYP2B6), and N-desethylamodiaquine (CYP2C8), with terfenadine as the internal standard by LC-MS/MS method. The HPLC-MS system utilized an Acquity UPLC system and Sciex API 4000 mass spectrometer in ESI positive mode, with quantitation employing MRM. […]

[7] = biological target: T3, CYP2C8; experiment: CYP direct inhibition in human liver microsomes
Description: Test compound/controls working solution or DMSO were added in 238.5 µL of liver microsomes working solution, mixed well by pipetting several times and pre-incubated in a 37 °C shaking water bath for 5 min. Following the pre-incubation, 60 µL of NADPH working solution were added, mixed well by pipetting several times, and incubated in a 37 °C shaking water bath for 10 min. Following the incubation, 300 µL of quenching solution were immediately added and vortexed for ~20 s to mix. All samples were centrifuged at 4000 rpm for 15 min at 4 °C and then the supernatant was transferred for LC-MS/MS analysis. IC50 values were determined by the Hill slope equation using Graph Pad Prism.
For competitive and time-dependent CYP inhibition, the peak area ratios (PAR) of analyte/internal standard were used to semi-quantitatively determine the concentration of acetaminophen (CYP1A2 activity), 4’-hydroxydiclofenac (CYP2C9), 4’-hydroxymephenytoin (CYP2C19), dextrorphan (CYP2D6), 1’-hydroxymidazolam (CYP3A4), 6β-hydroxytestosterone (CYP3A4), hydroxybupropion (CYP2B6), and N-desethylamodiaquine (CYP2C8), with terfenadine as the internal standard by LC-MS/MS method. The HPLC-MS system utilized an Acquity UPLC system and Sciex API 4000 mass spectrometer in ESI positive mode, with quantitation employing MRM. Samples were injected onto an Atlantis T3 5 μM column (2.1 x 50 mm). […]

SMILES: OC[C@H]1O[C@@H](OCCc2ccc(O)cc2)[C@H](O)[C@@H](O)[C@@H]1O [Salidroside]
- IC50 [1]: > 100 µM
- activity at 2 min, 100 µM ([1]; human): 84.4%
- inhibition at 2 min, 100 µM ([1]; human): 15.5%
- mean % of control activity / inhibition of OATP1B1 ([1]; up to concentrations of 33.3 mM, 33.3 µM): unchanged; also recorded: no inhibition
- IC50 [2]: > 50 µM
- estimated oral absorption (fa) [3]: 46%
- decrease of losartan AUC0-∞ [4]: ≈ 2 fold
- decrease of midazolam AUC0-∞ [4]: ≈ 2 fold
- percentage recovery of an IV dose as unchanged in the urine [5]: 53.7% and 64%
- IC50 [6]: > 50 µM
- IC50 [7]: > 50 µM
